Data reported in ChEMBL document CHEMBL3792292, “Development of a potent and selective FLT3 kinase inhibitor by systematic expansion of a non-selective fragment-screening hit” (Bioorg Med Chem Lett, 2016).
In brackets after ≈: the same amount, converted by molar mass. Activity calls are given as the source filed them. No cut-off for these calls is given here.

Columns and labels:
[1] = Permeability from apical to basolateral side in human Caco2 cells at 10 uM after 60 mins by HPLC-MS/MS analysis; format: ADME, cell-based; details: Caco-2, read-out: permeability
Homo sapiens [2] = species: Homo sapiens; assay: Selectivity ratio of IC50 for human N-terminal GST-tagged HGK catalytic domain (1 to 328 residues) expressed in baculovirus expression system to IC50 for human N-terminal GST-tagged FLT3 cytoplasmic domain (564 to 993 residues) expressed in baculovirus expression system
[3] = molecular target: Receptor-type tyrosine-protein kinase FLT3 (Homo sapiens) (UniProt P36888); assay: Inhibition of FLT3 autophosphorylation at Tyr-596 in human MV4-11 cells after 1.5 hrs by Western blot analysis; format: cell-based
CYP2C19 = CYP2C19 (Homo sapiens, UniProt P33261); assay: Inhibition of human CYP2C19 at 10 uM relative to control; format: ADME
[4] = Metabolic stability in human liver microsomes assessed as parent compound remaining at 1 uM after 1 hr; format: ADME; details: read-out: Stability
[5] = molecular target: Mitogen-activated protein kinase kinase kinase kinase 4 (Homo sapiens, UniProt O95819); assay: Inhibition of human N-terminal GST-tagged HGK catalytic domain (1 to 328 residues) expressed in baculovirus expression system using fluorescence labelled moesin-derived peptide substrate by electrophoretic mobility shift assay
MV4-11 = assay: Induction of apoptosis in human MV4-11 cells at 0.17 to 17 uM after 48 hrs by annexin V/propidium iodide staining based flow cytometry; format: functional, cell-based
CYP1A2 = CYP1A2 (Homo sapiens, UniProt P05177); assay: Inhibition of human recombinant CYP1A2 using CEC as substrate at 10 uM after 30 mins by fluorimetry relative to control; format: ADME; details: recombinant CYP1A2, probe CEC
CYP2D6 = CYP2D6 (Homo sapiens, UniProt P10635); assay: Inhibition of human CYP2D6 at 10 uM relative to control; format: ADME
[6] = molecular target: High affinity nerve growth factor receptor (Homo sapiens, UniProt P04629); assay: Inhibition of human N-terminal GST-tagged TRKA cytoplasmic domain (436 to 790 residues) expressed in baculovirus expression system using fluorescence labelled CSKtide as substrate by electrophoretic mobility shift assay
CYP3A4 = CYP3A4 (Homo sapiens, UniProt P08684); assay: Inhibition of human recombinant CYP3A4 at 10 uM by fluorimetry relative to control; format: ADME
CYP2C9 = CYP2C9 (Homo sapiens, UniProt P11712); assay: Inhibition of human CYP2C9 at 10 uM relative to control; format: ADME
Homo sapiens [7] = species: Homo sapiens; assay: Selectivity ratio of IC50 for human N-terminal GST-tagged TRKA cytoplasmic domain (436 to 790 residues) expressed in baculovirus expression system to IC50 for human N-terminal GST-tagged FLT3 cytoplasmic domain (564 to 993 residues) expressed in baculovirus expression system
[8] = Aqueous solubility in pH 7.4 PBS buffer at 200 uM after 24 hrs by UV-visible HPLC based shake flask method; format: physicochemical; details: PBS buffer pH 7.4, pH 7.4

Sequence of CYP2C19 (P33261 whole entry): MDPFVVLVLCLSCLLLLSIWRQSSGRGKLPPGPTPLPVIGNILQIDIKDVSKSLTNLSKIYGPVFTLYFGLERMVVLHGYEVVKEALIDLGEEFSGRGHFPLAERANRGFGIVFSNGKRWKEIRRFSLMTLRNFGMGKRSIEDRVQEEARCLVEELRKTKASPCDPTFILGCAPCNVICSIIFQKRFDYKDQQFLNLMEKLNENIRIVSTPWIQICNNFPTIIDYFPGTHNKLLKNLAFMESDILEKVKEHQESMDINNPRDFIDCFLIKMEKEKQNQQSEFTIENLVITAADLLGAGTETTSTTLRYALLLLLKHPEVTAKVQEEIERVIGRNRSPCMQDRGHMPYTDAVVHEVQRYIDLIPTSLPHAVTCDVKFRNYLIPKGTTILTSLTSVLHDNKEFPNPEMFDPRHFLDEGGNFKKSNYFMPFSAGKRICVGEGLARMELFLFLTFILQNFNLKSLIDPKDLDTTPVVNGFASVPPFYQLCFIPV
Sequence of CYP3A4 (P08684 whole entry): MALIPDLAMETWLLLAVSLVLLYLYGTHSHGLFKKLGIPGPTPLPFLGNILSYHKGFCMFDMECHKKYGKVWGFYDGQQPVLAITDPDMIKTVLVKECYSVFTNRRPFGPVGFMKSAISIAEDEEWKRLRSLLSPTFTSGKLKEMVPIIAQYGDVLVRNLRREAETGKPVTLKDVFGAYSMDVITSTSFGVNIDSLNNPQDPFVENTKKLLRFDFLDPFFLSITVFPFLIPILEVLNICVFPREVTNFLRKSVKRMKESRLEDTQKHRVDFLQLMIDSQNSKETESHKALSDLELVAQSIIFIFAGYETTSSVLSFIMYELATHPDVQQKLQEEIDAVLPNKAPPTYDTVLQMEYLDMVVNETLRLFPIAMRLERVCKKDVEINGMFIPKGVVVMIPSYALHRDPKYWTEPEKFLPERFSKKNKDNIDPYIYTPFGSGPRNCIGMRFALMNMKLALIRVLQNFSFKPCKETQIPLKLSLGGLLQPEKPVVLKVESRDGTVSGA
Sequence of Receptor-type tyrosine-protein kinase FLT3 (Homo sapiens) (P36888 whole entry): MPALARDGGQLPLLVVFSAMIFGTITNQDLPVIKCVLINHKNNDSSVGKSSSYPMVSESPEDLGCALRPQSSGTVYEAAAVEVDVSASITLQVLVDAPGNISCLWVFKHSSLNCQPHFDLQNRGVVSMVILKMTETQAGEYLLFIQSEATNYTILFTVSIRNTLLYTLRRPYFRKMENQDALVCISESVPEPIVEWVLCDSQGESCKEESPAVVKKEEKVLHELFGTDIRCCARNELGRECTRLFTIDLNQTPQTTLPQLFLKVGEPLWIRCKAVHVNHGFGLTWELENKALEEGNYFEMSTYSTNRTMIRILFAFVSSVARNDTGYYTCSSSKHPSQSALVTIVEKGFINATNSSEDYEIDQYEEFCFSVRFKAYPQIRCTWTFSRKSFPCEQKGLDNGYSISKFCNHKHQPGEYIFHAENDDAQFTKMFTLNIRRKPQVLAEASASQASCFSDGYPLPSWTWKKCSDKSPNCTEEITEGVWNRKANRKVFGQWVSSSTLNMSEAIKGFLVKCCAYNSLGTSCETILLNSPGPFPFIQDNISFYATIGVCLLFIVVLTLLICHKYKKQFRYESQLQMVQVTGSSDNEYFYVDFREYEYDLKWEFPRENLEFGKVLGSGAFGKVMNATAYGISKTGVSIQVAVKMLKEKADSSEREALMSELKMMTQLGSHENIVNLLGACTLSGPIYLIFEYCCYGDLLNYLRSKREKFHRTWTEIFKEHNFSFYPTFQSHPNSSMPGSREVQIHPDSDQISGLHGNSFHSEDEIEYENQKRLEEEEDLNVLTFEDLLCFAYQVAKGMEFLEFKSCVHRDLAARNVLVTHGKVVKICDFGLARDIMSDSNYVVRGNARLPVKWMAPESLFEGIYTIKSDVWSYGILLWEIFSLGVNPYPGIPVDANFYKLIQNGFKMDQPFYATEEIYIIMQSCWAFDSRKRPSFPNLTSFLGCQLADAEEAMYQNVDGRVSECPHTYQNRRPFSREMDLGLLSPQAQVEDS
Sequence of High affinity nerve growth factor receptor (P04629 whole entry, the tested form may be a part): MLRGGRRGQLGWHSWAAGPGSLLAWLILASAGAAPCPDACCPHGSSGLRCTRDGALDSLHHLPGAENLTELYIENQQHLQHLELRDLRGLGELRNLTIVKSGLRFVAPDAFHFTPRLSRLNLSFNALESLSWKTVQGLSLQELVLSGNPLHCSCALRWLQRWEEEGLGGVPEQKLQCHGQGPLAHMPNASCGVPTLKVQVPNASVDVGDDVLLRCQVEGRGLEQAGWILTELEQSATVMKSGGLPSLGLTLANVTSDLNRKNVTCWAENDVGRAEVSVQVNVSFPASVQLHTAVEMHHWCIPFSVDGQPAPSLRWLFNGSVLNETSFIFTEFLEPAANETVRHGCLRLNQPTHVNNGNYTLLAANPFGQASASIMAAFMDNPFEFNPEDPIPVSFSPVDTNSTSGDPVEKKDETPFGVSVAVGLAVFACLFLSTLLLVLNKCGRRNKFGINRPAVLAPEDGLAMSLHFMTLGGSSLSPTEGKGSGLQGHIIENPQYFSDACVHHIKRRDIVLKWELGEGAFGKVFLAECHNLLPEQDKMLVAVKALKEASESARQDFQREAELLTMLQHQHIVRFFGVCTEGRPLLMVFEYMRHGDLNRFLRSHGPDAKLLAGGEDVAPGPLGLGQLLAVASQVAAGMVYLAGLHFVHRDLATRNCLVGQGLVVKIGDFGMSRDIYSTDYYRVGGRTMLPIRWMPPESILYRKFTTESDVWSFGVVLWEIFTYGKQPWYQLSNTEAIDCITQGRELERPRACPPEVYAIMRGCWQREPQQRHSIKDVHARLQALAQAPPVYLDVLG
Sequence of Mitogen-activated protein kinase kinase kinase kinase 4 (O95819 whole entry, the tested form may be a part): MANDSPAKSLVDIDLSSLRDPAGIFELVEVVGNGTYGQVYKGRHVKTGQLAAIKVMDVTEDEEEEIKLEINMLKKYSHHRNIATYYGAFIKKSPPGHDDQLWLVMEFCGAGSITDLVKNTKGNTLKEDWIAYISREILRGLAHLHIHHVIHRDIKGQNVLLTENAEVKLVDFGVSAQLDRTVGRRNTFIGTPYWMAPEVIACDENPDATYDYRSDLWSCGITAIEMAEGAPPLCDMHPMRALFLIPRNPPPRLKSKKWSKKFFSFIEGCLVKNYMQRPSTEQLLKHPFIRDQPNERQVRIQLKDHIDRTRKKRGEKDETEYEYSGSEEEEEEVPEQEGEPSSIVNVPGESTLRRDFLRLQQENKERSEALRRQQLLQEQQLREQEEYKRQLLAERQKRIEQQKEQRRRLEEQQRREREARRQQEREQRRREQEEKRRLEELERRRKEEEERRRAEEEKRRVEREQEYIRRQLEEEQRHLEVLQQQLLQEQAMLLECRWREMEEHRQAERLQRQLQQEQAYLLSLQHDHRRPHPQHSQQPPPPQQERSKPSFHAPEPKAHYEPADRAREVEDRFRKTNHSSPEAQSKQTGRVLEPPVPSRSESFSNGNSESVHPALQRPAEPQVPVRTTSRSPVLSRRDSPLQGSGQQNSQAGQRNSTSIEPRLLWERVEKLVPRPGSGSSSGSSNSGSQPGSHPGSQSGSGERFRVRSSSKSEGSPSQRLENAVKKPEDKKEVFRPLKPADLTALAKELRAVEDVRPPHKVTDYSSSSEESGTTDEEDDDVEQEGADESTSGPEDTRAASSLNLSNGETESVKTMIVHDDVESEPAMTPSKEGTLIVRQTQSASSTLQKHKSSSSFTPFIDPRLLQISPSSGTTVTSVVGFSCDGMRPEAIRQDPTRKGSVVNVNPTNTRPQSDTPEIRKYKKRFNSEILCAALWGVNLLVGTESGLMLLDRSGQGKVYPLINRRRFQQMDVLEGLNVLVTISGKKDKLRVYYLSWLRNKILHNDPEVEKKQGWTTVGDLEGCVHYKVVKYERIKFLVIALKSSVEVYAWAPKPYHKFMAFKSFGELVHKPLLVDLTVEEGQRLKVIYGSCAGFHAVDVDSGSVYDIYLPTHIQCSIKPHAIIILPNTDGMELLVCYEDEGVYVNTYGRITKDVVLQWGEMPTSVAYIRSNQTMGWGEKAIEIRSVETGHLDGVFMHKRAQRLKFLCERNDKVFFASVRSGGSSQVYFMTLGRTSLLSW
Sequence of CYP2C9 (P11712 whole entry, the tested form may be a part): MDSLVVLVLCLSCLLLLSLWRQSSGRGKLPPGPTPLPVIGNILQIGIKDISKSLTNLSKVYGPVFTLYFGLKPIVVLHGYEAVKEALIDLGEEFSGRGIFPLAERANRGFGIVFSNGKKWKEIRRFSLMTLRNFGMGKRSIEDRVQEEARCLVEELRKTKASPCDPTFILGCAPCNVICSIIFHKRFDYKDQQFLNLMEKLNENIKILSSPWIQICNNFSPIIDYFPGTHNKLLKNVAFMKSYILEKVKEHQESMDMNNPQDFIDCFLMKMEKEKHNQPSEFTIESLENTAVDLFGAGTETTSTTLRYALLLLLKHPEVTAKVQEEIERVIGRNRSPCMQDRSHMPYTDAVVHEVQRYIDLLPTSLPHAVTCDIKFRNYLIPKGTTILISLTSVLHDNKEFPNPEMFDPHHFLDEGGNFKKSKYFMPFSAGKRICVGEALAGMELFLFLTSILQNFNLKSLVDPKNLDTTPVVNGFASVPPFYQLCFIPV
Sequence of CYP1A2 (P05177 whole entry): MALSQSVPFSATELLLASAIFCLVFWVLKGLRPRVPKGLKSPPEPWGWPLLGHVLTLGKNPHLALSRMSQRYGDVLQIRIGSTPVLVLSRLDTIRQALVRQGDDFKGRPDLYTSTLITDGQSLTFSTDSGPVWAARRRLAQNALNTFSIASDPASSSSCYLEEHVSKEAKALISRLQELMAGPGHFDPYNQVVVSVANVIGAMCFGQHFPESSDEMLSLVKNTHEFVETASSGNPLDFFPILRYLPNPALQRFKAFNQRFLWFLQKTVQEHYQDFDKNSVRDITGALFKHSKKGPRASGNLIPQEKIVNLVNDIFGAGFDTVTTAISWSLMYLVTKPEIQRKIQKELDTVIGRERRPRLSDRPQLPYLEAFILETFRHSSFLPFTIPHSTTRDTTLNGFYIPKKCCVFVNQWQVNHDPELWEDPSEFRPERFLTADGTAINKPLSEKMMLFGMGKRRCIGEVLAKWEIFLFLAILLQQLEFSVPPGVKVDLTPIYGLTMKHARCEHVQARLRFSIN

SMILES: O=C(Nc1ccc(CN2CCN(c3ccccc3)CC2)cc1)c1n[nH]c2ccccc12
- Papp A→B at 1 h, 10 µM [1]: 4 ×10⁻⁶ cm/s
- Ratio IC50 (Homo sapiens [2]): 45
- inhibition [3]: Dose-dependent effect
- inhibition at 10 µM (CYP2C19): 57%
- remaining at 1 h, 1 µM [4]: 50%
- IC50 [5]: 0.41 µM
- Activity (MV4-11): Active
- inhibition at 0.5 h, 10 µM (CYP1A2): 36%
- inhibition at 10 µM (CYP2D6): 62%
- IC50 [6]: 0.137 µM
- inhibition at 10 µM (CYP3A4): 48%
- inhibition at 10 µM (CYP2C9): 36%
- Ratio IC50 (Homo sapiens [7]): 15
- solubility thermodynamic at 24 h, 200 µM [8]: 3 µM (≈ 1.23 µg/mL)
